This note sets out measurements from ChEMBL document CHEMBL3992539, “Discovery of a series of N-(5-(quinolin-6-yl)pyridin-3-yl)benzenesulfonamides as PI3K/mTOR dual inhibitors” (Eur J Med Chem, 2017).

Activity calls are given as the source filed them. No cut-off for these calls is given here.

The subject of series [1] is PC-3. Briefly: Antiproliferative activity against human PC3 cells after 72 hrs by SRB assay. Type of series: functional, cell-based. Particulars: PC-3, 72 h. For orientation: Sulforhodamine B stains cellular protein and so reports cell mass.
Series [2] has as its target PI3-kinase p110-alpha/p85-alpha (Homo sapiens, UniProt P42336). Nature of the series: Inhibition of PI3K p110alpha/p85alpha (unknown origin) using PIP2 as substrate after 1 hr by luminescent kinase-Glo assay. Type of series: protein-complex assay. In general terms: Kinase-Glo reads ATP consumption through a luciferase reaction.
In series [3] the test system is HCT-116. Briefly: Antiproliferative activity against human HCT116 cells after 72 hrs by SRB assay. Type of series: functional, cell-based. The settings on record: HCT-116, 72 h.
Series [4] is filed under the species Homo sapiens. Nature of the series: Inhibition of PI3K in PTEN null human PC3 cells assessed as reduction in Akt phosphorylation at Ser-473 residue at 100 nM after 3 hrs by Western blot method. The format is cell-based.
Series [5] is described as follows: Cmax in mouse at 5 mg/kg, po by UPLC-MS/MS analysis. Type of series: ADME, organism-based. On the set-up: dose 5 mg/kg, route oral. Particulars: in vivo.
The nature of series [6]: AUCt in mouse at 5 mg/kg, po by UPLC-MS/MS analysis. The format is ADME, organism-based. The settings on record: in vivo.
The target in series [7] is Phosphatidylinositol 4,5-bisphosphate 3-kinase catalytic subunit gamma isoform (Homo sapiens, UniProt P48736). Briefly: Inhibition of recombinant full length His-tagged human PI3K p110gamma expressed in baculovirus expression system using PIP2 as substrate after 1 hr by ADP-Glo kinase assay. (ADP-Glo first removes unused ATP, then detects ADP through luciferase.)
Phosphatidylinositol 4,5-bisphosphate 3-kinase catalytic subunit gamma isoform, sequence (P48736 whole entry, canonical isoform): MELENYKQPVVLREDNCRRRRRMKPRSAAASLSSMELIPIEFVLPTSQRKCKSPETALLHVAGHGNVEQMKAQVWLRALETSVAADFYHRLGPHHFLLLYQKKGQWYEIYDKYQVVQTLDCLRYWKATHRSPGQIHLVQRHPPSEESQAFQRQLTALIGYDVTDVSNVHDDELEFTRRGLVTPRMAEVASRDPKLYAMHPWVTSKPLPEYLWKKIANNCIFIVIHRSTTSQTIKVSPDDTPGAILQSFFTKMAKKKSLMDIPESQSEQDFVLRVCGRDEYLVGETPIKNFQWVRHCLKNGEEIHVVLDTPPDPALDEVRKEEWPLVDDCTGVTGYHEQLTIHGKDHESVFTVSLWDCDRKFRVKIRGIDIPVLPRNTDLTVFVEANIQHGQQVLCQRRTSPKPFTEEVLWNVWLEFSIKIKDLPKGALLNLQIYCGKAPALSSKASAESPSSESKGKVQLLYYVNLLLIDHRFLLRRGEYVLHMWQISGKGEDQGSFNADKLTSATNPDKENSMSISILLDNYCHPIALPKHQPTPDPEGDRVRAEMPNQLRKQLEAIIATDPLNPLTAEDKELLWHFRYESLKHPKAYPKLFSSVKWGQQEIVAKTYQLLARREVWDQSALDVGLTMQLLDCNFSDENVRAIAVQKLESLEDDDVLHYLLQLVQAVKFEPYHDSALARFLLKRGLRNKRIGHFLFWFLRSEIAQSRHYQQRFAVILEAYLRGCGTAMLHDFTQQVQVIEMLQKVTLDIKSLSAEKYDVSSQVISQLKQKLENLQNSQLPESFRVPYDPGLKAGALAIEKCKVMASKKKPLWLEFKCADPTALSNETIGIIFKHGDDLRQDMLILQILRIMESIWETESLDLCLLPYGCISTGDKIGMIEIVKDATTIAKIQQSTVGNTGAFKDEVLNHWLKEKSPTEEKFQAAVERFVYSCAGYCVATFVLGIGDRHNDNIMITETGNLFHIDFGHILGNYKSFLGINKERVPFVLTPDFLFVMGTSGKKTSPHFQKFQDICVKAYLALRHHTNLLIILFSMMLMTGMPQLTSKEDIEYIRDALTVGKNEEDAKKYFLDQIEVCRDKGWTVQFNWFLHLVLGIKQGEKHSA
Series [8] addresses PI3K p110 beta/p85 alpha (Homo sapiens, UniProt P42338). Nature of the series: Inhibition of recombinant full length human N-terminal His6-tagged PI3K p110beta/p85alpha expressed in baculovirus infected Sf21 cells using PIP2 as substrate after 1 hr by ADP-Glo kinase assay.
A short description of series [9]: Plasma clearance in mouse at 5 mg/kg, po by UPLC-MS/MS analysis. Type of series: ADME, organism-based.
Series [10] in a line: Terminal half life in mouse at 5 mg/kg, po by UPLC-MS/MS analysis. Type of series: ADME, organism-based. The settings on record: in vivo, read-out: beta t1/2 (converted).
Series [11] concerns the target T1, Phosphatidylinositol 4,5-bisphosphate 3-kinase catalytic subunit delta isoform (Homo sapiens, UniProt O00329).
T1 sequence (O00329 whole entry): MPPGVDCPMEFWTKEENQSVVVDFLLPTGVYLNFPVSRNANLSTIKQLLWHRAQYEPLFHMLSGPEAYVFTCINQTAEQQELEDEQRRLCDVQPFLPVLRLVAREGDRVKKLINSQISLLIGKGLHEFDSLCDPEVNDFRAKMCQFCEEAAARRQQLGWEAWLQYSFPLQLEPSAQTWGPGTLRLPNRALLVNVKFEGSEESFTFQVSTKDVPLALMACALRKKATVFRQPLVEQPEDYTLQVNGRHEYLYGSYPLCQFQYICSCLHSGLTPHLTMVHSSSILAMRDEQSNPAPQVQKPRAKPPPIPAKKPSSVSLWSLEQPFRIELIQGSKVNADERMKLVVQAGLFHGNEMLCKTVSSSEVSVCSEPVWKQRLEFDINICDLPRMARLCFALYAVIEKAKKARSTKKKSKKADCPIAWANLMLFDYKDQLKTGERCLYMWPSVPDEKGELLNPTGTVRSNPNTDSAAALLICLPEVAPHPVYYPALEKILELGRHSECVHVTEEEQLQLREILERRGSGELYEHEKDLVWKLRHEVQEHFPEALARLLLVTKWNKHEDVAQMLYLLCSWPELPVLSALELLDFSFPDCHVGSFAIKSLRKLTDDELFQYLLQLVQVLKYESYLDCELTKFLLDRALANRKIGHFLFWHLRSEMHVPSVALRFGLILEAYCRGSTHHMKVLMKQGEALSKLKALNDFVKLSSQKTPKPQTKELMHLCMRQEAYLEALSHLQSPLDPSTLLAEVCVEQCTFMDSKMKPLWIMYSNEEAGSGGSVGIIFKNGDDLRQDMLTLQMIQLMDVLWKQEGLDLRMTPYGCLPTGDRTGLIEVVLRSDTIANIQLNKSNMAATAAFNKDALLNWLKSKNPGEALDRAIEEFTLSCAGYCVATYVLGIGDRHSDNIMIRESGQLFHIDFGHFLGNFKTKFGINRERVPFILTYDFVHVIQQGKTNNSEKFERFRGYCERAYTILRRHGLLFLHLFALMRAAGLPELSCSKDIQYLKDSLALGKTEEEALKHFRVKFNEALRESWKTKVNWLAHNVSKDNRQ
Nature of the series: Inhibition of PI3K p110delta (unknown origin) using PIP2 as substrate after 1 hr by ADP-Glo kinase assay.

The nature of series [12]: Mean residence time in mouse at 5 mg/kg, po by UPLC-MS/MS analysis. The format is ADME, organism-based. The settings on record: in vivo.
Series [13] deals with Mus musculus. Briefly: Volume of distribution in mouse at 5 mg/kg, po by UPLC-MS/MS analysis. The format is ADME, organism-based. Particulars: in vivo.
The target in series [14] is Serine/threonine-protein kinase mTOR (Homo sapiens, UniProt P42345). Nature of the series: Inhibition of recombinant human N-terminal FLAG-tagged mTOR (1362-end residues) using ULight-4E-BP1 peptide substrate after 1 hr in presence of ATP by Lance Ultra assay.

PI3-kinase p110-alpha/p85-alpha, sequence (P27986 whole entry): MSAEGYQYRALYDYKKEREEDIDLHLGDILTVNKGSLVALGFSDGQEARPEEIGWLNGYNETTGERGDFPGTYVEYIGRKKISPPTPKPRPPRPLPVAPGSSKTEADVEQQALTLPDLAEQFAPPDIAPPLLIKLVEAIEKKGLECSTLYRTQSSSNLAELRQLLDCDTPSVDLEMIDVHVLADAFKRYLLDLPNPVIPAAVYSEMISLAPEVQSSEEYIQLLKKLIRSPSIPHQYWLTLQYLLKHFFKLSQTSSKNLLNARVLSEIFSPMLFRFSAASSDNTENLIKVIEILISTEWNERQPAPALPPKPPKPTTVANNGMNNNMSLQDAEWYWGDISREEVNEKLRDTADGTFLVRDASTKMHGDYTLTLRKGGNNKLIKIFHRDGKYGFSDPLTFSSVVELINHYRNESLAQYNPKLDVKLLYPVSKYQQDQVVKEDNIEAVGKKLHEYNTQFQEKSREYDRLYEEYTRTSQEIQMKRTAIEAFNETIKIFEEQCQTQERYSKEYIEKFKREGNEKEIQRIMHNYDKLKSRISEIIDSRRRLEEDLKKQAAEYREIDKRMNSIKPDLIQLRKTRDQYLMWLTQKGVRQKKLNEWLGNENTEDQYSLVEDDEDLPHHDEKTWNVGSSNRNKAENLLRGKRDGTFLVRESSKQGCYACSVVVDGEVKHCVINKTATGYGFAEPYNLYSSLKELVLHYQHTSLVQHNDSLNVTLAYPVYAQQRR
PI3-kinase p110-alpha/p85-alpha, sequence (P42336 whole entry): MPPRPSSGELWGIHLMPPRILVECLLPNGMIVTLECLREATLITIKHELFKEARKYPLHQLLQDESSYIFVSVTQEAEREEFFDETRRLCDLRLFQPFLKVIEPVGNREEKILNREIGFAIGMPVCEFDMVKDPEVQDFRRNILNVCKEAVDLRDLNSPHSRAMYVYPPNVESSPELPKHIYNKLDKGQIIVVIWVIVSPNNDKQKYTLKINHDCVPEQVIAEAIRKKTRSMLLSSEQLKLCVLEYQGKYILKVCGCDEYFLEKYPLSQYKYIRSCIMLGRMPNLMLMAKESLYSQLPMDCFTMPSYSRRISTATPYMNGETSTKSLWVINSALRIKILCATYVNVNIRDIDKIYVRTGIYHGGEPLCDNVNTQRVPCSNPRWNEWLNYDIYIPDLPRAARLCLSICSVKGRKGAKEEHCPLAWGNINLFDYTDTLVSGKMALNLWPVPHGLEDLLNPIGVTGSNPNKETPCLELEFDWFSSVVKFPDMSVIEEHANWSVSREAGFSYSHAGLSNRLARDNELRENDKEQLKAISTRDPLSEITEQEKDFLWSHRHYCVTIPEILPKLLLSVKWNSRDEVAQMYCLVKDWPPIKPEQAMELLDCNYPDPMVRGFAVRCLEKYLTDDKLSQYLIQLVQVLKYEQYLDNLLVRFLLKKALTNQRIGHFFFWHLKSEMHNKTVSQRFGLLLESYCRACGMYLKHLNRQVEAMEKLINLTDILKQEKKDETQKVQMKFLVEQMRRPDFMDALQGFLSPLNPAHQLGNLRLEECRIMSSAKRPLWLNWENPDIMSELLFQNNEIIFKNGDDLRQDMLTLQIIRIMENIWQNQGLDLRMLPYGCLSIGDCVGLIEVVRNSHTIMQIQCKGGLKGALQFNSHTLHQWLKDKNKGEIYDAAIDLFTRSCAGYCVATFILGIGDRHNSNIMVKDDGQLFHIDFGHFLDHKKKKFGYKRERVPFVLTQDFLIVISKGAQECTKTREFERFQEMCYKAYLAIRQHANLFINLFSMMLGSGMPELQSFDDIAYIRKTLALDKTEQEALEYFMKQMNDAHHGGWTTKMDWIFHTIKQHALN
PI3K p110 beta/p85 alpha, sequence (P27986 whole entry): as the sequence (P27986 whole entry) above
PI3K p110 beta/p85 alpha, sequence (P42338 whole entry): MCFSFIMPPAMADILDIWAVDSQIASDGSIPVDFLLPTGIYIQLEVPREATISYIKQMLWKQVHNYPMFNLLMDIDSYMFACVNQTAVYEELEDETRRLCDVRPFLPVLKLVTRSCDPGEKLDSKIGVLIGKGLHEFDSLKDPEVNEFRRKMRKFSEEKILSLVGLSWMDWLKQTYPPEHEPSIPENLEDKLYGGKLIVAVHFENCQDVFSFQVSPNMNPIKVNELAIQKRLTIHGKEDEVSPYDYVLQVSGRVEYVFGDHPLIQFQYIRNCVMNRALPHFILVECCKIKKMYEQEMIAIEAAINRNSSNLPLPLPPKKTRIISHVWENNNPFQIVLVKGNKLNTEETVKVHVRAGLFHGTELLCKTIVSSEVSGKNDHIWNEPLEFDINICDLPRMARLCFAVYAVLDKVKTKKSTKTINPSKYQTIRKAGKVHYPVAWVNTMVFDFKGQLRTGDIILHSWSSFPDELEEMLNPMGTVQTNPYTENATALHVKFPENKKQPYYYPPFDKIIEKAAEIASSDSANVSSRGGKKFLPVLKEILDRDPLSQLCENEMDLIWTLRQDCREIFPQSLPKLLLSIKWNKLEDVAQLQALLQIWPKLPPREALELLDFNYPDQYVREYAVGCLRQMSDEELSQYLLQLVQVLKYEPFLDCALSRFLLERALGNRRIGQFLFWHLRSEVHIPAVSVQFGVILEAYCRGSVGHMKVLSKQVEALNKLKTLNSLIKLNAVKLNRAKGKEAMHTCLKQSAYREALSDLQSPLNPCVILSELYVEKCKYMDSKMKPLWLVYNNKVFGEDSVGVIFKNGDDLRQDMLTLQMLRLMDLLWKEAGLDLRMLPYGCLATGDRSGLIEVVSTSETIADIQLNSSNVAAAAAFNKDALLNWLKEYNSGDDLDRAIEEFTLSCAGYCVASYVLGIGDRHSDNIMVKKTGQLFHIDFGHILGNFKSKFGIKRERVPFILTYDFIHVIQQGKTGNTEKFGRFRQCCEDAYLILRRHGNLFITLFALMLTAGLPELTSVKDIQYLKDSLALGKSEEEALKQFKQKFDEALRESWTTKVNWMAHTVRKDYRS

The IC50 is the midpoint of a concentration-inhibition curve. For `COc1ncc(-c2ccc3ncc(NC(C)=O)c(OC)c3c2)cc1NS(=O)(=O)c1ccc(F)cc1F`, the values for the IC50 in series [1], in series [2] and in series [3] were 1.24 µM, 0.0084 µM and 0.55 µM, respectively.
For the compound `COc1ncc(-c2ccc3ncc(NC(=O)CN4CCCC(O)C4)c(OC)c3c2)cc1NS(=O)(=O)c1ccc(F)cc1F` (stereo unspecified), the IC50 in series [1] was 1.34 µM; in series [2], 0.0015 µM; in series [3], 1.77 µM.
The like results for `COc1ncc(-c2ccc3ncc(NC(=O)CN4CCOCC4)c(OC)c3c2)cc1NS(=O)(=O)c1ccc(F)cc1` were, in that order, 1.83 µM, 0.0027 µM and 2.83 µM.
Regarding `CCNc1cnc2ccc(-c3cnc(OC)c(NS(=O)(=O)c4ccc(F)cc4F)c3)cc2c1OC`, the IC50 in [1] came to 4.82 µM; in series [2], 0.0094 µM; in series [3], 1.85 µM.
The corresponding values for `COc1ncc(-c2ccc3ncc(NCc4ccccc4)c(OC)c3c2)cc1NS(=O)(=O)c1ccc(F)cc1F` are 4.32 µM, 0.036 µM and 16.8 µM.
The corresponding values for `COc1ncc(-c2ccc3ncc(NC(=O)CN4CCC(O)CC4)c(OC)c3c2)cc1NS(=O)(=O)c1ccc(F)cc1F` are 3.21 µM, 0.002 µM and 1.98 µM.
`COc1ncc(-c2ccc3ncc(NCC4CCCCC4)c(OC)c3c2)cc1NS(=O)(=O)c1ccc(F)cc1F`: the concentration for half-maximal inhibition (IC50) in series [1] is 9 µM; in series [2] it was 0.21 µM; in [3] it was 13.6 µM.
As to `COc1ncc(-c2ccc3ncc(NC(=O)CN(C)CCO)c(OC)c3c2)cc1NS(=O)(=O)c1ccc(F)cc1F`, the IC50 in [1] stood at 2 µM; in [2], 0.0013 µM; in series [3] it was 1.79 µM.
In the case of `COc1ncc(-c2ccc3ncc(NC(=O)C4CCCCC4)c(OC)c3c2)cc1NS(=O)(=O)c1ccc(F)cc1F`, the IC50 in series [1] worked out at 6.63 µM; in series [2], 0.015 µM; in [3] it was 4.61 µM.
The like results for `COc1ncc(-c2ccc3ncc(NCC4CCN(S(C)(=O)=O)CC4)c(OC)c3c2)cc1NS(=O)(=O)c1ccc(F)cc1F` were, in that order, 2.85 µM, 0.0047 µM and 1.36 µM.
The like results for `COc1ccc(CNc2cnc3ccc(-c4cnc(OC)c(NS(=O)(=O)c5ccc(F)cc5F)c4)cc3c2OC)cc1` were, in that order, 4.52 µM, 0.027 µM and 10.2 µM.
`COc1ncc(-c2ccc3ncc(NCc4ccc(C(F)(F)F)cc4)c(OC)c3c2)cc1NS(=O)(=O)c1ccc(F)cc1F`: the IC50 turned out to be 2.88 µM in series [1], 0.03 µM in [2] and 3.22 µM in series [3].
With `COc1ncc(-c2ccc3ncc(NCC4CCN(C(C)=O)CC4)c(OC)c3c2)cc1NS(=O)(=O)c1ccc(F)cc1F`, the IC50 in series [1] worked out at 2.57 µM; in [2], 0.0037 µM; in series [3] it was 1.93 µM.
The like results for `COc1ncc(-c2ccc3ncc(NC(=O)CN4CCOCC4)c(OC)c3c2)cc1NS(=O)(=O)c1ccc(C(F)(F)F)cc1` were, in that order, 3.75 µM, 0.00226 µM and 2.52 µM.
As for `Cn1c(=O)n(-c2ccc(C(C)(C)C#N)cc2)c2c3cc(-c4cnc5ccccc5c4)ccc3ncc21` [DACTOLISIB], the IC50 came to 0.51 µM in series [1] and 0.22 µM in series [3].
The term Cmax denotes the highest concentration seen after dosing. A word on the AUC(0-t): it is exposure summed from dosing to a finite time, without extrapolation to infinity. Lower therefore signals low exposure. As a reminder, the CL/F is clearance divided by bioavailability, as obtained after extravascular dosing. As usually defined, the MRT is the average time that molecules of a dose stay in the body. `COc1ncc(-c2ccc3ncc(NC(=O)CN4CCOCC4)c(OC)c3c2)cc1NS(=O)(=O)c1ccc(F)cc1F`: the inhibition entry in series [4] is “Active”. Besides, the Cmax in [5] amounted to 2.95 µg/mL. Moreover, the IC50 in series [1] was 0.08 µM; in series [2] it was 0.0017 µM; in series [7], 0.0084 µM; in [8], 0.0039 µM; in series [3], 0.47 µM; in series [11], 0.00087 µM. In [14], the IC50 turned out to be 0.01 µM. The AUC(0-t) in series [6] is 11.7 µg·h/mL. This compound also gave a CL/F in [9] of 0.42 L/h/kg. Also, the half-life in [10] is 1.6 h. The compound also yielded an MRT in series [12] of 2.7 h. The compound further returned a Vd in [13] of 1 L/kg.
As to `COc1ncc(-c2ccc3ncc(NC(=O)CN4CCN(C)CC4)c(OC)c3c2)cc1NS(=O)(=O)c1ccc(F)cc1F`, the values for the IC50 in series [1], in series [2] and in series [3] were 1.73 µM, 0.0032 µM and 1.54 µM, respectively.
